# From ChEMBL document CHEMBL5727988, “Prodrugs of pyridone amides useful as modulators of sodium channels” (2020)
# Experiment: Electrophysiology Assay: Patch clamp electrophysiology was used to assess the efficacy and selectivity of sodium channel blockers in dorsal root ganglion neurons. Rat neurons were isolated from the dorsal root ganglions and maintained in culture for 2 to 10 days in the presence of NGF (50 ng/ml) (culture media consisted of NeurobasalA supplemented with B27, glutamine and antibiotics). Small diameter neurons (nociceptors, 8-12 μm in diameter) were visually identified and probed with fine tip glass electrodes connected to an amplifier (Axon Instruments). The “voltage clamp” mode was used to assess the compound's IC50 holding the cells at −60 mV. In addition, the “current clamp” mode was employed to test the efficacy of the compounds in blocking action potential generation in response to current injections.
smiles,measurement,value
COc1cc(NC(=O)c2ccc(C(F)(F)F)cc2F)ccn1,IC50,44 nM
Cc1cc(F)ccc1Oc1cc(C(F)(F)F)ccc1C(=O)Nc1ccn(CCl)c(=O)c1,IC50,28 nM
